# Measured values published in article PMC4336331, “Novel Receptor-Derived Cyclopeptides to Treat Heart Failure Caused by Anti-β1-Adrenoceptor Antibodies in a Human-Analogous Rat Model” (PLoS ONE, 2015).
# Peptide text beside a SMILES is read from it.
# Legend:
# [1] = system: GRK2 and GRK5; test: qRT-PCR of cardiac GRK expression, therapy-study; format: in vivo, Lewis/CrlBR rats; details: qRT-PCR normalised to GAPDH (Fig. 4C)
# [2] = system: functional β1EC2-specific memory B-cells; test: Adoptive B-cell transfer and suboptimal immunisation; format: in vivo, Lewis rats; details: purified B-cells from immunised treated donors into antigen-naïve recipients, then 12.5μg β1EC2/GST-FP in adjuvans (Fig. 5M)
# Experimental: (d) To detect functional β 1 EC2-specific memory B-cells in vivo, B-cells were first purified from total splenocytes by negative depletion using mAb V65, R73, 10/78 and WT.5 plus magnetic beads (MACS, Miltenyi Biotec, Bergisch-Gladbach, Germany) yielding average purities of 87%. 2.6x10^7 purified B cells were injected in 250 μl PBS i.v. into antigen-naïve syngeneic male Lewis rats. To selectively trigger the transferred memory B-cells, recipient rats were immunised after five days with only 12.5 μg GST/β1EC2-FP in adjuvans per animal. Serum was collected for antibody detection just before as well as three and seven days after immunisation.
# Fig 5 Immunology of cyclic β1EC2-peptides: fate of β1EC2-specific T- and B-cells. (A) Titer-course of anti-β1EC2-abs in β1EC2-CP-treated rats during the first 6 months of the prevention-study before and 24h after cyclopeptide-injection. Time-points of antigen-boosts are indicated by (red) lines, time-points of CP-injections by (green) arrows. For better readability error-bars are not shown in the graph. (B) Pre-experiments (antigenic recall-assays) performed with CD4^+ T-cells prepared from spleens of GST/β1EC2 fusion-protein (FP)-immunised untreated (n = 3, black) vs. 0.9%NaCl-injected control rats (n = 3, white). […]
compound,measurement,setting,value
CC(C)[C@@H]1NC(=O)[C@H](Cc2ccccc2)NC(=O)[C@H](CC(=O)O)NC(=O)[C@H](CS)NC(=O)[C@H](CS)NC(=O)[C@H](CCCCN)NC(=O)[C@@H]2CCCN2C(=O)[C@H](CC(=O)O)NC(=O)[C@H](CC(N)=O)NC(=O)[C@H](Cc2ccc(O)cc2)NC(=O)[C@H](CS)NC(=O)[C@H](CCCNC(=N)N)NC(=O)[C@H](CCCNC(=N)N)NC(=O)[C@H](C)NC(=O)[C@H](CCC(=O)O)NC(=O)[C@H](CC(=O)O)NC(=O)[C@H](CO)NC(=O)[C@H](CCC(=O)O)NC(=O)[C@H](C)NC(=O)[C@H](CCCNC(=N)N)NC(=O)[C@H](C)NC(=O)[C@H](CCC(N)=O)NC(=O)CNC(=O)[C@H](CCCNC(=N)N)NC(=O)[C@H](CC(N)=O)NC(=O)[C@H]([C@@H](C)O)NC1=O [β1EC2-CP] (cyclo(AESDEARRCYNDPKCCDFVTNRGQAR)),"upregulation of GRK2 and GRK5, in words",[1],reverted
same,"anti-β1EC2-abs in serum of recipient rats after B-cell transfer, in words",[2],did not induce detectable amounts
